What all share (assay): NCI tumour cell line growth inhibition, 48 h
Experiment [1] deals with SF-268 CNS.
Experiment [2] relates to IGROV1 ovarian.
Experiment [3] relates to MDA-MB-435.
Experiment [4] relates to HCC-2998 colon.
In experiment [5] the test system is HS 578T breast.
The subject of experiment [6] is SK-MEL-28 melanoma.
The test system of experiment [7] is A498 renal.
Experiment [8] deals with ACHN renal.
The test system of experiment [9] is HOP-92 NSCLC.
For experiment [10], the system named is OVCAR-4 ovarian.
In experiment [11] the test system is NCI/ADR-RES ovarian.
Experiment [12] has as its system EKVX NSCLC.

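Assay format: 96-well plates, 48-hour exposure. TGI: concentration producing complete growth inhibition.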

As for `CC1(C)CCc2c(c(N=Nc3ccc(F)cc3)c3ccccc3c2O)O1`, the TGI in experiment [1] is > 100 µM; in experiment [2], > 100 µM; in experiment [3] it was 32 µM; in experiment [4] it was 42.8 µM; in experiment [5], > 100 µM; in experiment [6] it was > 100 µM. The TGI in experiment [7] was 88.8 µM; in experiment [8] it was > 100 µM; in experiment [9], > 100 µM; in [10] it was > 100 µM; in [11] it was > 100 µM; in [12] it was 97 µM.
For the compound `CCN1CCC(O)(/C=C/c2ccc(C(C)C)cc2)C(C(=O)/C=C/c2ccc(C(C)C)cc2)C1` (stereo not given), the TGI in experiment [1] came to 4.31 µM; in [2], 6.79 µM; in [3] it was 8.99 µM; in experiment [4], 3.64 µM; in experiment [5], 5.68 µM; in experiment [6] it was 11.7 µM. For the same compound, the TGI in experiment [7] worked out at 19.1 µM; in experiment [8], 3.31 µM; in [9] it was 3.69 µM; in experiment [10], 8.71 µM; in experiment [11], 8.44 µM; in experiment [12], 5.74 µM.
For `C=CCn1c(-c2ccc([N+](=O)[O-])cc2)csc1=N`, the TGI in experiment [1], in [2], in [3], in experiment [4], in [5] and in experiment [6] was > 100 µM each time. Also, the TGI in experiment [7], in [8], in [9], in experiment [10], in experiment [11] and in experiment [12] was > 100 µM each time.
Consider `C[C@H]1COC2=C1C(=O)C(=O)c1c2ccc2c1CCCC2(C)C`, for which the TGI in experiment [1] is 44.4 µM; in experiment [2] it was 29.2 µM; in experiment [3], 2.74 µM; in experiment [4], 19.6 µM; in [5], 9.55 µM; in experiment [6], 20.6 µM. For the same compound, the TGI in [7] is 52.6 µM; in [8], > 81.7 µM; in experiment [9], > 100 µM; in experiment [10], > 100 µM; in [11] it was 24 µM; in experiment [12] it was 71.7 µM.
In the case of `OC(CC(O)(C(F)(F)F)C(F)(F)F)c1ccc(C(O)CC(O)(C(F)(F)F)C(F)(F)F)cc1` (stereo not given), the TGI in experiment [1] worked out at 28.9 µM; in experiment [2], 23.3 µM; in experiment [3] it was 32.7 µM; in experiment [4] it was 33.3 µM; in experiment [5], 47.7 µM; in experiment [6] it was 30.6 µM. For the same compound, the TGI in experiment [7] is 25.1 µM; in experiment [8], 27.6 µM; in [9], 25.9 µM; in experiment [10], 29.8 µM; in experiment [11], 29.6 µM; in experiment [12], 28 µM.
Consider `O=C(O)CCC(NC(=O)c1ccc(Nc2nc3cc(C(F)(F)F)ccc3nc2C(=O)O)cc1)C(=O)O` (stereo not given), for which the TGI in experiment [1], in experiment [2], in experiment [3], in experiment [4], in experiment [5] and in experiment [6] was > 100 µM throughout. For the same compound, the TGI in [7], in experiment [8], in experiment [9], in experiment [11] and in experiment [12] was > 100 µM each time.
With `Cc1cn(S(=O)(=O)c2ccccc2)c2c(OCc3ccccc3)cc(NS(C)(=O)=O)cc12`, the TGI was > 77.9 µM in experiment [1]; > 100 µM in experiment [2]; > 100 µM in [3]; > 100 µM in experiment [4]; > 100 µM in experiment [5]; > 100 µM in [6]. In addition, the TGI was 50.3 µM in [7]; > 100 µM in experiment [8]; > 89.8 µM in [9]; > 100 µM in [10]; > 100 µM in [11]; > 44.6 µM in experiment [12].
In the case of `Cc1sc2nc3n(c(=O)c2c1C)N=CN(c1ccc(F)cc1)C3`, the TGI was > 100 µM in experiment [1]; > 100 µM in experiment [2]; > 100 µM in [3]; > 100 µM in experiment [4]; 79.2 µM in [5]; > 100 µM in experiment [6]. Also, the TGI in experiment [7] was > 100 µM; in [8] it was > 100 µM; in [9], 83.9 µM; in experiment [10], 38.5 µM; in [11], > 100 µM; in experiment [12] it was > 100 µM.
For `CCOC(=O)/C=C(\C(=O)OCC)n1ccc(=O)[nH]c1=O`, the TGI is 42 µM in experiment [1]; 30.1 µM in experiment [2]; 38 µM in experiment [3]; 38.4 µM in [4]; 99.8 µM in experiment [5]; 33.4 µM in [6]. Besides, the TGI in experiment [7] was 34.8 µM; in experiment [8] it was 23.6 µM; in [9], 9.04 µM; in [10] it was > 52.3 µM; in experiment [11] it was > 93 µM; in [12], 34.9 µM.
Take `Cc1ccc(NC(=O)CSC(N)=O)cc1C`: the TGI in experiment [1], in [2], in [3], in experiment [4], in experiment [5] and in experiment [6] was > 100 µM each time. Besides, the TGI in experiment [7], in experiment [8], in experiment [9], in [10], in experiment [11] and in [12] was > 100 µM throughout.
Take `N#CC(C#N)=C1C(=O)NC(N)=C1C#N`: the TGI in [1], in experiment [2], in experiment [3], in experiment [4], in [5] and in experiment [6] was > 100 µM in each case. Also, the TGI in [7], in [8], in experiment [9], in experiment [10], in experiment [11] and in experiment [12] was > 100 µM throughout.
As to `CCOC(=O)[C@@H]1ON2OC(OC3CCCC3(c3ccccc3)c3ccccc3)C(OC(C)=O)[C@H]3OC(=O)[C@@H]1C32` (stereo not given in full), the TGI in experiment [1], in experiment [2], in [3], in experiment [4], in experiment [5] and in experiment [6] was > 100 µM each time. Moreover, the TGI in experiment [7] is > 100 µM; in [8] it was 73.2 µM; in experiment [9] it was > 100 µM; in experiment [11], > 100 µM; in experiment [12], > 100 µM.
With `O=C1C(=Cc2ccc(Cl)c(Cl)c2)C([O-])=C([P+](c2ccccc2)(c2ccccc2)c2ccccc2)C([O-])=C1[P+](c1ccccc1)(c1ccccc1)c1ccccc1`, the TGI in experiment [1] was determined as 3.94 µM; in [2], 6.34 µM; in experiment [3], 5.59 µM; in [4], 5.78 µM; in experiment [5], 12.7 µM; in experiment [6] it was 6.07 µM. Further, the TGI in [7] is 31.9 µM; in [8], 9.26 µM; in [9], 4.86 µM; in experiment [10] it was 10.4 µM; in [11], 19.3 µM; in experiment [12], 6.64 µM.
With `CCOc1ccc2c(c1)c(=O)c1c(NCCN(CC)CC)ccc3nnn2c31`, the TGI in [1] is > 80.2 µM; in experiment [2], 30.3 µM; in experiment [3] it was 32.5 µM; in experiment [4] it was > 50.4 µM; in experiment [5], > 100 µM; in experiment [6], > 55 µM. Also, the TGI is > 100 µM in experiment [7]; > 56.1 µM in experiment [8]; > 100 µM in experiment [9]; 26.3 µM in experiment [10]; > 54.2 µM in experiment [11]; > 100 µM in experiment [12].
On to `CN(C)CCCNCc1cccc2ccccc12`, for which the TGI in experiment [1], in experiment [2], in experiment [3], in experiment [5], in experiment [6] and in experiment [7] was > 100 µM each time. Further, the TGI in experiment [8], in experiment [9], in experiment [10], in experiment [11] and in [12] was > 100 µM throughout.
As to `S=c1[nH]c2ccc(I)cc2c(=S)n1Cc1ccccc1`, the TGI in [1] was 25.3 µM; in [2] it was 27.6 µM; in experiment [3], > 100 µM; in experiment [5], > 100 µM; in [6], > 100 µM; in [7], 55.4 µM. Moreover, the TGI was 58.7 µM in experiment [8]; 9.34 µM in [9]; > 100 µM in [10]; 25.5 µM in experiment [11]; 23.7 µM in experiment [12].
In the case of `C=C(c1ccccc1)c1ccccc1-c1cc(-c2ccccc2)cc(-c2ccccc2)n1`, the TGI in experiment [1], in experiment [2], in experiment [3], in experiment [4], in [5] and in [6] was > 100 µM in each case. For the same compound, the TGI in [7], in experiment [8], in experiment [9], in experiment [11] and in experiment [12] was > 100 µM throughout.
As to `CC(=O)OC1COC(Nc2nc(N)n(C)c(=O)c2N=O)C(OC(C)=O)C1OC(C)=O` (stereo not given), the TGI in experiment [1], in [2], in experiment [3], in experiment [4], in experiment [5] and in [6] was > 10 µM in each case. In addition, the TGI in experiment [7], in experiment [8], in experiment [9], in experiment [10], in experiment [11] and in experiment [12] was > 10 µM each time.
Take `CCC(NC1=NCCO1)c1cccs1` (stereo not given): the TGI was determined as 39.3 µM in experiment [2]; 27.6 µM in [3]; 28.9 µM in experiment [4]; 26.4 µM in [5]; 29 µM in experiment [6]; 42.5 µM in experiment [7]. For the same compound, the TGI in experiment [8] is 29.4 µM; in [9] it was 32.6 µM; in experiment [10] it was 44.5 µM; in experiment [11], > 100 µM; in [12], 31.1 µM.
For `C=CC(C)(C)C(=C)C(=O)Nc1ccccc1I`, the TGI in experiment [1], in [3], in experiment [4], in experiment [5], in [6] and in experiment [7] was > 100 µM in each case. The TGI in experiment [8], in [9], in experiment [10], in experiment [11] and in experiment [12] was > 100 µM throughout.
Turning to `COC(=O)C1=C(C(=O)OC)SC2(S1)C(C(=O)OC)=C(C(=O)OC)Sc1c2ssc1=NC(C)(C)C`, the TGI in experiment [1] turned out to be 4.72 µM; in experiment [2], 3.16 µM; in experiment [3] it was 3.08 µM; in experiment [5], 18.5 µM; in [6], 5.02 µM; in experiment [7] it was 3.48 µM. Besides, the TGI in experiment [8] came to 3.35 µM; in experiment [9], 2.76 µM; in [10], 3.32 µM; in [11], 7.73 µM; in experiment [12], 3.36 µM.
In the case of `Cn1c(O)c(C=Nc2ccccc2Cl)c(=O)n(C)c1=O`, the TGI is > 100 µM in experiment [1]; > 100 µM in [2]; > 100 µM in [3]; 34.2 µM in experiment [4]; > 100 µM in [5]; > 100 µM in [7]. Also, the TGI is 92.2 µM in experiment [8]; > 100 µM in [9]; 98.6 µM in experiment [10]; > 100 µM in experiment [11]; > 100 µM in experiment [12].
`C[N+](C)(CCNC(=O)c1cccc2cc3ccccc3nc12)Cc1ccc([N+](=O)[O-])s1`: the TGI in experiment [1], in [2], in experiment [3], in [5], in experiment [6] and in experiment [7] was > 25 µM each time. Further, the TGI in [8], in experiment [9], in [11] and in experiment [12] was > 25 µM in each case.

(Values after PubChem BioAssay (NCI).)
